According to patent publication US8034796B2, “Glucosamine and glucosamine/anti-inflammatory mutual prodrugs, compositions, and methods” (The University of Georgia Research Foundation, Inc., priority 2004, dated 2011):
Where two headings read alike, the source gives them in different places.

Legend:
[1] = In-vitro membrane permeation of NAG through shed snakeskin (Franz cell; enhancers, DMSO, ethanol/buffer); format: in vitro ADME, snake
Text: Shed snakeskins were used as a model membrane for permeation studies using the NAG suspensions in known membrane permeation enhancers; ethanol, oleic acid, isopropyl myristate, and isopropyl palmitate; saturated solutions of NAG in water and in phosphate buffer; as well as in a saturated DMSO solution and phosphate buffer (pH 5.5) containing ethanol at 2%, 5%, 10%, 25%, and 50% solutions.
The skins were hydrated in 0.1% aqueous sodium azide solution at room temperature for 48 hrs. Franz-cell diffusions experiments were carried out. In general the receptor cell was filled with 7.4 pH 0.1 M phosphate buffer and the donor cell filled with a solution or suspension. For the phosphate buffer (pH 5.5) containing ethanol at 2%, 5%, 10%, 25%, and 50% solutions in the donor phase, the receptor phase consisted of phosphate buffer (pH 5.5, 0.1 M). The receptor solution was maintained at 37° C. and stirred with a magnetic stirrer.
The snake skins were mounted between the receptor and donor cells. The surface exposed to diffusion was 2.54 cm^2 (diameter 1.8 cm) and the receptor cell volume was 6 cm^3. The donor cell was covered with plastic film. The system was allowed to equilibrate at 37° C. for two hours before each experiment. To the donor cells, 5 ml of the NAG-enhancer suspension or solution was added. Samples were taken at intervals over a 24-hour period, 200-μl samples of receptor solutions were taken and replaced with fresh buffer; experiments were conducted in triplicate. The amounts of NAG that permeated through the snakeskin were determined by HPAE-PAD.
Steady state flux (Jss) for NAG (mg/cm^2/h) was calculated from its increasing amount in the receptor medium (Bach et al., Eur. J. Pharm. Biopharm, 46:1-13 (1998)). NAG's permeability coefficient (kp) in cm/h was calculated from known physiochemical parameters, (Hadgraft et al., “Feasibility Assessment in Topical and Transdermal Delivery: Mathematical Models and In Vitro Studies,” in Transdermal Drug Delivery. 2nd Ed. Marcel Dekker, Inc., pages 1-23 (2003)). Lag time (tlag) was determined graphically from the cumulative amount of drug released per unit area (mg/cm^2) versus time plots. A square root of time (t^1/2) versus cumulative amount of drug released per unit area (mg/cm^2) was obtained to monitor NAG in vitro release rate (mg/cm^2), (Guidance for Industry: SUPAC-SS Semisolid Dosage Forms. Scale-up and Postapproval Changes Chemistry, Manufacturing, and Control; In Vitro Release Testing and In Vivo Bioequivalence Documentation. US Department of Health and Human Services, Food and Drug Administration, Center for. Drug Evaluation and Research, May 1997).

[2] = format: in vitro ADME, snake
Description: In vitro transport (diffusion) was evaluated by Franz cell diffusion experiments using shed snakeskin. Shed snakeskin is widely recognized as a sufficient model membrane to human skin for preliminary permeability studies due to the similarity in its composition to the human stratum corneum.
The shed snakeskin was hydrated in 0.1% aqueous sodium azide solution for 48 hours at room temperature. The skins were mounted to three Franz receptor cells filled with 0.1 M pH7 phosphate buffer. The receptor solution was maintained at 37° C. and stirred with a magnetic stirrer. The donor cells were clamped to each receptor cell, with the skin mounted between the receptor and donor cells, and the donor cells were filled with 100 milligrams (mg) each of glucosamine HCl (e.g., cell 1), N-acetyl glucosamine (e.g., cell 2), and glucosamine pentaacetyl (e.g., cell 3) in a 1 milliliter (ml) DMSO solution. The skin surface exposed to diffusion was 2.54 cm^2 (1.8 cm diameter) and the receptor cell volume was 6 cm^3. The system was allowed to equilibrate for two hours before samples were taken.
Twenty microliter (μl) samples of receptor solution were taken at 5, 10, 20, 40, 80, 160, and 240 minute intervals and replaced with fresh buffer. A ten μl aliquot of each sample was analyzed by high performance liquid chromatography with pulsed electrochemical detection.

[3] = cited from earlier work
[4] = cited from earlier work; remark: listed apart in the source
[5] = In-vitro membrane permeation of NAG from lecithin suspensions and pluronic organo-gel formulations across shed snakeskin; format: in vitro ADME, snake
Description: Twenty percent poloxamer 407 (PLURONIC F127; Polyethylene-Polypropylene Glycol) gels were made by standard methods e.g. dissolving the poloxamer into cold water under refrigeration for 24 hours to produce the pluronic gel phase. NAG was incorporated into the pluronic gel phase. The final formulations were prepared via the emulsification of the select organic phase with the pluronic gel phase using luer-lock connected syringes.
Shed snakeskins were used as the model membrane for these permeation studies using the NAG semi-solid gel formulations. The skins were hydrated in 0.1% aqueous sodium azide solution at room temperature for 48 hrs. Franz-cell diffusions experiments were carried out. In general the receptor cell was filled with a 7.4 pH 0.1 M phosphate buffer. The receptor solution was maintained at 37° C. and stirred with a magnetic stirrer. The snakeskins were mounted between the receptor and donor cells. The surface exposed to diffusion was 2.54 cm^2 (diameter 1.8 cm) and the receptor cell volume was 6 cm^3. The donor cell was covered with plastic film. The system was allowed to equilibrate at 37° C. for two hours before each experiment. The donor cells were filled with a 5 ml of the semisolid NAG pluronic-organo-gel formulation. Samples (N=3) were taken at intervals over a 48-hour period, 200-μl samples of receptor solutions were taken and replaced with fresh buffer; experiments were conducted in triplicate. The amounts of NAG that permeated through the snakeskin were determined by HPAE-PAD.
Steady state flux (Jss) for NAG (mg/cm^2/h) was calculated from its increasing amount in the receptor medium (Bach et al., Eur. J. Pharm. and Biopharm., 46:1-13 (1998)). NAG's permeability coefficient (kp) in cm/h was calculated from known physiochemical parameters (Hadgraft et al., “Feasibility Assessment in Topical and Transdermal Delivery: Mathematical Models and In Vitro Studies,” in Transdermal Drug Delivery, 2nd Ed. Marcel Dekker, Inc., pages 1-23 (2003)). Lag time (tlag) was determined graphically from the cumulative amount of drug released per unit area (mg/cm^2) versus time (h) plots. A square root of time (t^1/2) versus cumulative amount of drug released per unit area (mg/cm^2) was obtained to monitor NAG in vitro release rate (mg/cm^2) (Guidance for Industry: SUPAC-SS Semisolid Dosage Forms. Scale-up and Postapproval Changes Chemistry, Manufacturing, and Control; In Vitro Release Testing and In Vivo Bioequivalence Documentation. US Department of Health and Human Services, Food and Drug Administration, May 1997).

[6] = Oil/water partition coefficient, n-hexane/phosphate buffer; format: physicochemical; details: 37° C., 24 hours
Description: The oil/water partition coefficient for NAG was determined using n-hexane/phosphate buffer (pH 5.5 6, 6.73, and 7.4, 0.1 M) and n-hexane/water (Bemacki et al., J. Supramolecular Structure, 7:235-250 (1977)). In each case 5 ml of n-hexane was mixed with aqueous solutions containing NAG and shaken at 37° C. for 24 hours. The mixture was afterwards centrifuged and the organic and aqueous phases separated. The NAG concentration in the filtrates was determined by HPAE-PAD after the appropriate dilution.

[7] = Solubility measurements of NAG; format: physicochemical
Description: The solutions were centrifuged for 5 min at 9000 rev/min and the supernatant filtered with cellulose acetate membrane filters (0.45 μm pore size) (Dionex, Sunnyvale Calif.). The NAG concentration in each filtrate was determined by HPAE-PAD after the appropriate dilution.

[8] = cited from earlier work; remark: listed apart in the source
[9] = literature; cited from earlier work
[10] = phosphate buffer (pH 5.5) with 2% ethanol
[11] = phosphate buffer (pH 5.5) with 5% ethanol
[12] = phosphate buffer (pH 5.5) with 10% ethanol
[13] = phosphate buffer (pH 5.5) with 25% ethanol
[14] = phosphate buffer (pH 5.5) with 50% ethanol
[15] = saturated DMSO donor, pH 7.4 phosphate buffer receptor
[16] = lecithin-vitamin E (1:1) suspension

CC(=O)N[C@H]1C(O)O[C@H](CO)[C@@H](O)[C@@H]1O (stereo partly drawn) [NAG, N-acetyl-D-glucosamine]
NAG transport from suspensions of membrane permeability enhancers ([1]; ethanol, oleic acid, isopropyl myristate and isopropyl palmitate suspensions): Negligible
In Vitro release rate [1, 10]: 286.03 μg/cm^2
Jss [1, 10]: 112.61 mg/cm^2/h
In Vitro release rate [1, 11]: 303.61 μg/cm^2
Jss [1, 11]: 119.53 mg/cm^2/h
In Vitro release rate [1, 12]: 537.49 μg/cm^2
Jss [1, 12]: 211.61 mg/cm^2/h
In Vitro release rate [1, 13]: 523.06 μg/cm^2
Jss [1, 13]: 205.93 mg/cm^2/h
In Vitro release rate [1, 14]: 198.02 μg/cm^2
Jss [1, 14]: 77.96 mg/cm^2/h
In Vitro release rate [1, 15]: 186.64 mg/cm^2
Jss [1, 15]: 73.48 mg/cm^2/h
lag time ([1]; saturated DMSO solution): no lag time
in vitro release rate ([1]; saturated DMSO solution, FIG. 13): 73.48 μg/cm^2
Papp ([1]; snake, calculated from known physiochemical parameters, read-out: permeability coefficient kp (converted)): 203 ×10⁻⁶ cm/s
permeation from aqueous solutions ([1]; water or phosphate buffer solutions (pH 5.5, 6.0, 6.73, and 7.4; 0.1 M)): No permeation
transport across shed snake skin [2]: highly transported
transport (receptor cell volume analyzed) ([2]; snake, 100 mg/ml, pH 7): over 50%
pKa [3]: 6.73
octanol-water partition coefficient ([4]; pH 7.4): 0.017
transport in aqueous only vehicles ([5]; experiments not reported here): not transported
NAG transport from suspensions ([5]; lecithin-isopropyl palmitate and vitamin E suspensions (100 mg/ml)): Negligible (below the limit of detection)
Release rate [5, 16]: 13.71 μg/cm^2
steady state flux Jss [5, 16]: 4.23 μg/cm^2/h
Papp ([5]; snake, pH 7.4, lecithin-vitamin E (1:1) suspension, read-out: permeability coefficient kp (converted)): 1.39 ×10⁻⁶ cm/s
partition coefficient n-hexane/pH 5.5 buffer [6]: 0.252
partition coefficient n-hexane/pH 6.0 buffer [6]: 0.194
partition coefficient n-hexane/pH 6.73 buffer [6]: 0.092
partition coefficient n-hexane/pH 7.4 buffer [6]: 0.091
solubility ([7]; ethanol): insignificantly soluble
solubility ([7]; phosphate buffer): highly soluble

Cl.N[C@H]1C(O)O[C@H](CO)[C@@H](O)[C@@H]1O (stereo partly shown) [glucosamine HCl, Glucosamine HCl, reference compound]
transport across shed snake skin [2]: not transported

N[C@H]1C(O)O[C@H](CO)[C@@H](O)[C@@H]1O (stereo partly shown) [glucosamine]
bioavailability ([8]; oral administration): 12-13%
oral dose absorbed and excreted ([8]; oral dose): approximately 87%
oral dose reaching osteoarthritic joints ([8]; oral dose): < 1%
oral dose widely distributed in the body ([8]; oral dose): < 13%

CC(C)Cc1ccc(C(C)C(=O)O)cc1 (stereo not shown) [ibuprofen]
transport across shed snake skin [9]: transported

CN1CC[C@]23c4c5ccc(O)c4O[C@H]2C(=O)CC[C@@]3(O)[C@H]1C5 [oxymorphone]
octanol-water partition coefficient ([4]; pH 7.4): 0.0

CCC(NC(C)C)C(O)c1ccc(O)c2[nH]c(=O)ccc12 (stereo not shown) [procaterol]
octanol-water partition coefficient ([4]; pH 7.7): −0.37
